Reference: US7138361B2, “Herbicidal heterocycles” (E. I. du Pont de Nemours and Company, priority 2000, dated 2006)

Legend:
Assay type in all cases: in vivo
rice (Oryza saliva) [1] = assay: Test C flooded paddy test; conditions: for Rice plant response rating: Flooded Paddy, scale 0 to 100, 0 no effect, 100 complete control; for Plant response rating, Rice: flooded paddy test, scale 0 to 100 (0 no effect, 100 complete control)
Summary of the method: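 Greenhouse-maintained for 12 to 14 days after treatment, the paddy plants (2-leaf stage at application) were scored visually against controls. A score of 0 denotes no effect and a score of 100 denotes complete control.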

[2] = tested on: blackgrass (Alopecurus myosuroides); assay: Test B postemergence; conditions: 13 to 15 days
Summary of the method: (§1)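 Preemergence: seeds planted and treated with test chemicals in non-phytotoxic solvent with surfactant; postemergence on plants 2–18 cm (1- to 4-leaf stage). Kept in greenhouse 13–15 days, then visually rated against controls on a 0 (no effect) to 100 (complete control) scale.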

[3] = tested on: morning glory (Ipomoea hederacea); assay: Test B postemergence; conditions: 13 to 15 days
Summary of the method: as §1

[4] = tested on: pigweed (Amaranthus retroflexus); assay: Test B postemergence; conditions: 13 to 15 days
Summary of the method: as §1

corn (Zea mays) [5] = assay: Test B postemergence; conditions: 13 to 15 days
Summary of the method: as §1

[6] = tested on: Surinam grass (Brachiaria decumbens); assay: Test B postemergence; conditions: 13 to 15 days
Summary of the method: as §1

[7] = tested on: barnyardgrass (Echinochloa crus-galli); assay: Test B postemergence; conditions: 13 to 15 days
Summary of the method: as §1

[8] = tested on: velvetleaf (Abutilon theophrasti); assay: Test B postemergence; conditions: 13 to 15 days
Summary of the method: as §1

[9] = tested on: cocklebur (Xanthium strumarium); assay: Test B postemergence; conditions: 13 to 15 days
Summary of the method: as §1

[10] = tested on: giant foxtail (Setaria faberii); assay: Test B postemergence; conditions: 13 to 15 days
Summary of the method: as §1

[11] = tested on: lambsquarters (Chenopodium album); assay: Test B postemergence; conditions: 13 to 15 days
Summary of the method: as §1

wild oat (Avena fatua) = assay: Test B postemergence; conditions: 13 to 15 days
Summary of the method: as §1

[12] = tested on: wheat (Triticum aestivum); assay: Test B postemergence; conditions: 13 to 15 days
Summary of the method: as §1

[13] = tested on: crabgrass (Digitaria sanguinalis); assay: Test B postemergence; conditions: 13 to 15 days
Summary of the method: as §1

Nightshade = assay: Test C preemergence; conditions: visual evaluation after 12 to 14 days
Sunflower = assay: Test C preemergence; conditions: scale 0 to 100, 0 no effect, 100 complete control
[14] = tested on: morning glory (Ipomoea hederacea); assay: Test B preemergence
Summary of the method: as §1

[15] = tested on: pigweed (Amaranthus retroflexus); assay: Test B preemergence
Summary of the method: as §1

corn (Zea mays) [16] = assay: Test B preemergence
Summary of the method: as §1

[17] = tested on: Surinam grass (Brachiaria decumbens); assay: Test B preemergence
Summary of the method: as §1

[18] = tested on: barnyardgrass (Echinochloa crus-galli); assay: Test B preemergence
Summary of the method: as §1

[19] = tested on: velvetleaf (Abutilon theophrasti); assay: Test B preemergence
Summary of the method: as §1

[20] = tested on: cocklebur (Xanthium strumarium); assay: Test B preemergence
Summary of the method: as §1

[21] = tested on: giant foxtail (Setaria faberii); assay: Test B preemergence
Summary of the method: as §1

[22] = tested on: lambsquarters (Chenopodium album); assay: Test B preemergence
Summary of the method: as §1

rice (Oryza saliva) [23] = assay: Test B preemergence
Summary of the method: as §1

[24] = tested on: crabgrass (Digitaria sanguinalis); assay: Test B preemergence
Summary of the method: as §1

[25] = Rate 125 g/ha, scale 0 (no effect) to 100 (complete control)
[26] = Rate 500 g/ha, scale 0 to 100, 0 is no effect, 100 is complete control
[27] = Preemergence, Rate 500 g/ha, scale 0 to 100, 0 no effect, 100 complete control
[28] = preemergence, Rate 125 g/ha, scale 0 to 100, 0 no effect, 100 complete control
[29] = preemergence, Rate 125 g/ha, scale of 0 to 100 where 0 is no effect and 100 is complete control, 13 to 15 days

CC(C)c1ccn(C2SCN(c3cccc(OC(F)F)c3)C2=O)n1 (stereo not drawn) [Compound 44]
Rice plant response rating (rice (Oryza saliva) [1]; Rate 250 g/ha): 90 | Rice plant response rating (rice (Oryza saliva) [1]; Rate 500 g/ha): 90 | Plant response rating, Rice (rice (Oryza saliva) [1]; Rate 62 g/ha): 80 | Plant response rating, Rice (rice (Oryza saliva) [1]; Rate 125 g/ha): 80 | Plant response rating, Blackgrass [2, 25]: 0 | Plant response rating, Blackgrass [2, 26]: 0 | Plant response rating, Morningglory [3, 25]: 0 | Plant response rating, Morningglory [3, 26]: 0 | Plant response rating, Pigweed [4, 25]: 0 | Plant response rating, Pigweed [4, 26]: 0 | Plant response rating, Corn (corn (Zea mays) [5]; [25]): 0 | Plant response rating, Corn (corn (Zea mays) [5]; [26]): 20 | Plant response rating, Surinam grass [6, 25]: 0 | Plant response rating, Surinam grass [6, 26]: 0 | Plant response rating, Barnyardgrass [7, 25]: 40 | Plant response rating, Barnyardgrass [7, 26]: 100 | Plant response rating, Velvetleaf [8, 25]: 0 | Plant response rating, Velvetleaf [8, 26]: 0 | Plant response rating, Cocklebur [9, 25]: 20 | Plant response rating, Cocklebur [9, 26]: 70 | Plant response rating, Foxtail, Giant [10, 25]: 0 | Plant response rating, Foxtail, Giant [10, 26]: 60 | Plant response rating, Lambsquarters [11, 25]: 20 | Plant response rating, Lambsquarters [11, 26]: 60 | Plant response rating, Wild Oat (wild oat (Avena fatua); [25]): 0 | Plant response rating, Wild Oat (wild oat (Avena fatua); [26]): 0 | Plant response rating, Wheat [12, 25]: 0 | Plant response rating, Wheat [12, 26]: 0 | Plant response rating, Crabgrass [13, 25]: 0 | Plant response rating, Crabgrass [13, 26]: 40 | Plant response rating (0 to 100), Nightshade (Nightshade; Rate 250 g/ha): 0 | Plant response rating, Sunflower (Sunflower; Rate 125 g/ha): 0 | Plant response rating, Morningglory [14, 27]: 0 | Plant response rating, Pigweed [15, 27]: 100 | Plant response rating, Corn (corn (Zea mays) [16]; [27]): 20 | Plant response rating, Corn (corn (Zea mays) [16]; [28]): 0 | Plant response rating, Surinam grass [17, 27]: 100 | Plant response rating, Surinam grass [17, 28]: 0 | Plant response rating, Barnyardgrass [18, 27]: 100 | Plant response rating, Barnyardgrass [18, 28]: 80 | Plant response rating, Velvetleaf [19, 27]: 0 | Plant response rating, Cocklebur [20, 28]: 0 | Plant response rating, Foxtail, Giant [21, 27]: 100 | Plant response rating, Foxtail, Giant [21, 28]: 10 | Plant response rating, Lambsquarters [22, 27]: 100 | Plant response rating, Lambsquarters [22, 28]: 100 | Plant response rating, Rice (rice (Oryza saliva) [23]; [27]): 100 | Plant response rating, Crabgrass [24, 27]: 100 | Plant response rating, Crabgrass [24, 28]: 0

CCCC(C)c1ccn(C2OCN(c3cccc(C(F)(F)F)c3)C2=O)n1 (stereo not drawn) [Compound 89]
Rice plant response rating (rice (Oryza saliva) [1]; Rate 250 g/ha): 20 | Rice plant response rating (rice (Oryza saliva) [1]; Rate 500 g/ha): 40 | Plant response rating, Rice (rice (Oryza saliva) [1]; Rate 62 g/ha): 0 | Plant response rating, Rice (rice (Oryza saliva) [1]; Rate 125 g/ha): 0 | Plant response rating, Blackgrass [2, 25]: 0 | Plant response rating, Blackgrass [2, 26]: 0 | Plant response rating, Morningglory [3, 26]: 40 | Plant response rating, Pigweed [4, 26]: 90 | Plant response rating, Corn (corn (Zea mays) [5]; [25]): 30 | Plant response rating, Corn (corn (Zea mays) [5]; [26]): 0 | Plant response rating, Surinam grass [6, 25]: 0 | Plant response rating, Surinam grass [6, 26]: 0 | Plant response rating, Barnyardgrass [7, 25]: 0 | Plant response rating, Barnyardgrass [7, 26]: 80 | Plant response rating, Velvetleaf [8, 26]: 0 | Plant response rating, Cocklebur [9, 25]: 0 | Plant response rating, Cocklebur [9, 26]: 30 | Plant response rating, Foxtail, Giant [10, 25]: 90 | Plant response rating, Foxtail, Giant [10, 26]: 70 | Plant response rating, Lambsquarters [11, 26]: 100 | Plant response rating, Wild Oat (wild oat (Avena fatua); [26]): 0 | Plant response rating, Wheat [12, 26]: 0 | Plant response rating, Crabgrass [13, 25]: 0 | Plant response rating, Crabgrass [13, 26]: 60 | Plant response rating (0 to 100), Nightshade (Nightshade; Rate 500 g/ha): 30 | Plant response rating, Sunflower (Sunflower; Rate 250 g/ha): 0 | Plant response rating, Morningglory [14, 27]: 0 | Plant response rating, Morningglory [14, 29]: 0 | Plant response rating, Pigweed [15, 27]: 100 | Plant response rating, Pigweed [15, 29]: 90 | Plant response rating, Corn (corn (Zea mays) [16]; [27]): 0 | Plant response rating, Corn (corn (Zea mays) [16]; [29]): 0 | Plant response rating, Surinam grass [17, 27]: 100 | Plant response rating, Surinam grass [17, 29]: 60 | Plant response rating, Barnyardgrass [18, 27]: 100 | Plant response rating, Barnyardgrass [18, 29]: 80 | Plant response rating, Velvetleaf [19, 27]: 0 | Plant response rating, Velvetleaf [19, 29]: 0 | Plant response rating, Cocklebur [20, 27]: 0 | Plant response rating, Cocklebur [20, 29]: 0 | Plant response rating, Foxtail, Giant [21, 27]: 100 | Plant response rating, Foxtail, Giant [21, 29]: 90 | Plant response rating, Lambsquarters [22, 27]: 100 | Plant response rating, Lambsquarters [22, 29]: 100 | Plant response rating, Rice (rice (Oryza saliva) [23]; [27]): 10 | Plant response rating, Rice (rice (Oryza saliva) [23]; [29]): 0 | Plant response rating, Crabgrass [24, 27]: 100 | Plant response rating, Crabgrass [24, 29]: 90

O=C1C(n2ccc(C3CC3)n2)OCN1c1cccc(C(F)(F)F)c1 (stereo not drawn) [Compound 28]
Rice plant response rating (rice (Oryza saliva) [1]; Rate 250 g/ha): 20 | Rice plant response rating (rice (Oryza saliva) [1]; Rate 500 g/ha): 20 | Plant response rating, Rice (rice (Oryza saliva) [1]; Rate 62 g/ha): 0 | Plant response rating, Rice (rice (Oryza saliva) [1]; Rate 125 g/ha): 20 | Plant response rating, Blackgrass [2, 25]: 0 | Plant response rating, Blackgrass [2, 26]: 0 | Plant response rating, Morningglory [3, 25]: 0 | Plant response rating, Morningglory [3, 26]: 0 | Plant response rating, Pigweed [4, 25]: 30 | Plant response rating, Pigweed [4, 26]: 30 | Plant response rating, Corn (corn (Zea mays) [5]; [25]): 0 | Plant response rating, Corn (corn (Zea mays) [5]; [26]): 0 | Plant response rating, Surinam grass [6, 25]: 0 | Plant response rating, Surinam grass [6, 26]: 0 | Plant response rating, Barnyardgrass [7, 25]: 0 | Plant response rating, Barnyardgrass [7, 26]: 60 | Plant response rating, Velvetleaf [8, 25]: 0 | Plant response rating, Velvetleaf [8, 26]: 0 | Plant response rating, Cocklebur [9, 25]: 0 | Plant response rating, Cocklebur [9, 26]: 0 | Plant response rating, Foxtail, Giant [10, 25]: 0 | Plant response rating, Foxtail, Giant [10, 26]: 30 | Plant response rating, Lambsquarters [11, 25]: 60 | Plant response rating, Lambsquarters [11, 26]: 70 | Plant response rating, Wild Oat (wild oat (Avena fatua); [25]): 0 | Plant response rating, Wild Oat (wild oat (Avena fatua); [26]): 0 | Plant response rating, Wheat [12, 25]: 0 | Plant response rating, Wheat [12, 26]: 0 | Plant response rating, Crabgrass [13, 25]: 20 | Plant response rating, Crabgrass [13, 26]: 30 | Plant response rating (0 to 100), Nightshade (Nightshade; Rate 250 g/ha): 90 | Plant response rating, Sunflower (Sunflower; Rate 125 g/ha): 40 | Plant response rating, Morningglory [14, 27]: 0 | Plant response rating, Pigweed [15, 27]: 100 | Plant response rating, Corn (corn (Zea mays) [16]; [27]): 0 | Plant response rating, Corn (corn (Zea mays) [16]; [28]): 0 | Plant response rating, Surinam grass [17, 27]: 70 | Plant response rating, Surinam grass [17, 28]: 0 | Plant response rating, Barnyardgrass [18, 27]: 100 | Plant response rating, Barnyardgrass [18, 28]: 50 | Plant response rating, Velvetleaf [19, 27]: 0 | Plant response rating, Cocklebur [20, 27]: 100 | Plant response rating, Cocklebur [20, 28]: 0 | Plant response rating, Foxtail, Giant [21, 27]: 100 | Plant response rating, Foxtail, Giant [21, 28]: 20 | Plant response rating, Lambsquarters [22, 27]: 100 | Plant response rating, Lambsquarters [22, 28]: 100 | Plant response rating, Rice (rice (Oryza saliva) [23]; [27]): 40 | Plant response rating, Crabgrass [24, 27]: 100 | Plant response rating, Crabgrass [24, 28]: 20
